Read-outs that look alike come from different tables or passages of the source. Where a SMILES comes first, the peptide text is derived from it. Bridges are numbered along the chain shown (N, C = ends). [ ]: non-standard residue; d: D form. The star is where a group is joined. X1 = CC[C@H](C)CCCCC(=O)*; Dab = NCC[C@H](N)C(=O)O
Assays:
[1] = Colistin pharmacokinetics in plasma after nebulized CMS in ventilated VARI patients; format: in vivo, human; settings: for Volume of distribution/ fraction of dose absorbed / Clearance/fraction of dose absorbed / Cmax / AUC0–8 h: NCA; for Volume of distribution/ fraction of dose absorbed: dose/(λ × AUCinf); for Volume of distribution/ fraction of dose absorbed / Clearance/fraction of dose absorbed / Cmax / Cmin / AUC0–8 h / level at 0.5 h / level at 1 h / level at 2 h / level at 4 h / level at 6 h / level at 8 h / Tmax: median (IQR); for Clearance/fraction of dose absorbed: dose/AUCinf; for AUC0–8 h: no systemic CMS, HPLC-fluorescence; for level at 0.5 h / level at 1 h / level at 2 h / level at 4 h / level at 6 h / level at 8 h / Tmax: 2 mIU; for level at 0.5 h: 0.5 h post-nebulization; for level at 0.5 h / level at 1 h / level at 2 h / level at 4 h / level at 6 h / level at 8 h: read-out: Ccolistin, plasma; for level at 1 h: 1 h post-nebulization; for level at 2 h: 2 h post-nebulization; for level at 4 h: 4 h post-nebulization; for level at 6 h: 6 h post-nebulization; for level at 8 h: 8 h post-nebulization
Text: The study population consisted of 24 critically ill adult patients, admitted to the intensive care unit of the First Department of Pulmonology of the National and Kapodistrian University of Athens between June 2014 and November 2017. All patients were intubated and mechanically ventilated, and received inhaled CMS as part of their treatment for VAP or VAT caused by Gram-negative pathogens. Subjects were studied around the first dose of nebulized treatment, which always preceded intravenous treatment, to avoid confounding by colistin (or CMS) reaching the ELF via the systemic circulation. We excluded patients that received a dose different to the institution’s standard of 2 million international units (mIU) (~160 mg) of CMS and patients who were planned to receive intravenous colistin within 8 h of nebulization initiation.
A dose of 2 mIU of CMS (Colistin®, Norma Hellas, Athens, Greece), corresponding to approximately 160 mg CMS or 68 mg colistin-base activity, was nebulized over a 10–30 min period via either VMN (Aeroneb Solo with Aeroneb Pro controller, Aerogen, Galway, Ireland) or generic JN. This was not a randomized trial, and the nebulizer selection was exclusively a matter of availability of VMN consumables in the ICU at the time. The intended dose was dissolved in 4 mL of normal saline 0.9%. The nebulizer was placed at the inspiratory limb of the ventilator circuit, at 15 cm from the Y-piece, and the heat and moisture exchanger was removed. During nebulization, the patients were sedated and ventilated using assist volume controlled mode, with tidal volume set at 8 mL/kg of ideal body weight, a constant squared-wave inspiratory flow, a positive end expiratory pressure (PEEP) of less than or equal to 10 cm H2O, an inspiratory to expiratory time ratio equal to 1, an inspiratory pause of 10%, and a respiratory rate set at 15/min [31].
[…] The specimens were immediately centrifuged (3500× g for 10 min) in a frigid centrifuge (at 4 °C) and supernatants were collected in Eppendorfs and were frozen at −80 °C until analysis.
Colistin concentrations in plasma (Ccolistin,plasma) and epithelial lining fluid (Ccolistin,ELF) were measured through high performance liquid chromatography (HPLC)-fluorescence analysis.
The samples were rapidly centrifuged, and plasma and BAL supernatant were separated and kept frozen (−80 °C) before analysis, as previously described. An HPLC-RF assay was used for colistin concentration measurements in plasma and BAL fluid samples, based on the method of Li et al., as modified by Markou et al. and Ratjen et al.. Briefly, netilmicin was used as the internal standard and the method consisted of a protein precipitation step with trifluoracetic acid (TFA), followed by colistin derivatization with 9-fluorenylmethyl chloroformate on a solid phase extraction C18 cartridge. The eluted fluid was dried under vacuum and the solid residue was reconstituted in mobile phase for subsequent reversed-phase HPLC with fluorescence detection (excitation: 260 nm; emission: 316 nm). The analytical column was a Phenomenex Luna C18, 3 μm, 50 mm × 3 mm with 100 Å particle size, while the mobile phase consisted of ACN/THF/H2O (80/7.7/12.3%) with a flow rate of 0.5 mL/min. The injection volume was 20 μL. The method was linear at a concentration range of 0.10–4.8 mg/L (R^2 = 0.999). The limit of detection (LOD) and lower limit of quantification (LLOQ) were 0.01 and 0.04 mg/L, respectively, while the intra- and inter-assay variabilities were less than 16%. Representative chromatograms and calibration curves in plasma and BAL are given in the Supplementary Material (Figures S1 and S2).
PK analysis was performed on measured serum and ELF concentrations using the Phoenix® version 8.3 PK/PD software package (Certara, Princeton, NJ, USA). […]

[2] = test system: Klebsiella pneumoniae; settings: in vitro experiments, typical plasma maximum concentrations; cited from earlier work
[3] = test system: Pseudomonas aeruginosa; settings: animal thigh and lung infection models; cited from earlier work
[4] = test system: Acinetobacter baumannii; settings: animal thigh and lung infection models; cited from earlier work
[5] = cited from earlier work
Procedure: The median (IQR) values of colistin concentration in plasma (Ccolistin, plasma) using VMN nebulization were 0.6 (0.4–0.7) mg/L, 2.3 (1.4–2.7) mg/L, 1.7 (1.1–2.0) mg/L, 0.8 (0.7–0.9) mg/L, 0.4 (0.3–0.6) mg/L, and 0.2 (0.2–0.4) mg/L, at 0.5, 1, 2, 4, 6 and 8 h post-nebulization. The corresponding values with JN were 0.1 (0.1–0.1) mg/L, 0.1 (0.1–0.2) mg/L, 0.3 (0.3–0.4) mg/L, 0.2 (0.2–0.2) mg/L, 0.1 (0.1–0.1) mg/L, and 0.1 (0.1–0.1) mg/L (Figure 3). Median Ccolistin, plasma was greater than 2 mg/L at 1 h post-nebulization, a value which is the average concentration, in steady-state conditions, th ... || Contrarily, our results were only marginally compatible with the results of Boisson et al. and Gkoufa et al.. In the former study, the range of colistin concentration in the ELF following a 2 mIU inhalation spanned from 9.53 to 1137 mg/L [14], while it was between 0.8 mg/L and 57.9 mg/L in the present study. In the latter study, the exact values were not reported, however in the figured data it was shown that after an inhalation of 3 to 5 mIU of CMS, formed colistin concentrations were in the range of 10^2 to 10^3 mg/L [16]. Again, it is not known whether these differences we ...

[6] = human, inhaled or intranasal, JN, n = 6, 2 mIU CMS inhaled
[7] = human, inhaled or intranasal, VMN, n = 18, 2 mIU CMS inhaled

CC[C@H](C)CCCCC(=O)N[C@@H](CCN)C(=O)N[C@H](C(=O)N[C@@H](CCN)C(=O)N[C@H]1CCNC(=O)[C@H]([C@@H](C)O)NC(=O)[C@H](CCN)NC(=O)[C@H](CCN)NC(=O)[C@H](CC(C)C)NC(=O)[C@@H](CC(C)C)NC(=O)[C@H](CCN)NC1=O)[C@@H](C)O [colistin] (X1-[Dab]T[Dab][Dab][Dab][dL]L[Dab][Dab]T; lactam 4-C)
Ccolistin over 2 mg/L, frequency of patients ([1]; 30 min, JN, n = 6, 2 mIU CMS inhaled): 0% | Ccolistin over 2 mg/L, frequency of patients ([1]; 30 min, VMN, n = 18, 2 mIU CMS inhaled): 0% | Ccolistin over 2 mg/L, frequency of patients ([1]; 60 min, JN, n = 6, 2 mIU CMS inhaled): 16.7% | Ccolistin over 2 mg/L, frequency of patients ([1]; 60 min, VMN, n = 18, 2 mIU CMS inhaled): 61.1% | Ccolistin over 2 mg/L, frequency of patients ([1]; 120 min, JN, n = 6, 2 mIU CMS inhaled): 16.7% | Ccolistin over 2 mg/L, frequency of patients ([1]; 120 min, VMN, n = 18, 2 mIU CMS inhaled): 22.2% | Ccolistin over 2 mg/L, frequency of patients ([1]; 240 min, JN, n = 6, 2 mIU CMS inhaled): 16.7% | Ccolistin over 2 mg/L, frequency of patients ([1]; 240 min, VMN, n = 18, 2 mIU CMS inhaled): 5.6% | Ccolistin over 2 mg/L, frequency of patients ([1]; 360 min, JN, n = 6, 2 mIU CMS inhaled): 0% | Ccolistin over 2 mg/L, frequency of patients ([1]; 360 min, VMN, n = 18, 2 mIU CMS inhaled): 0% | Ccolistin over 2 mg/L, frequency of patients ([1]; 480 min, JN, n = 6, 2 mIU CMS inhaled): 0% | Ccolistin over 2 mg/L, frequency of patients ([1]; 480 min, VMN, n = 18, 2 mIU CMS inhaled): 0% | Volume of distribution/ fraction of dose absorbed ([1]; JN, n = 6, 2 mIU CMS inhaled): 129.8 (95.6–151.9) L | Clearance/fraction of dose absorbed ([1]; JN, n = 6, 2 mIU CMS inhaled): 37.6 (23.2–39.9) L/h | Cmax ([1]; JN, n = 6, 2 mIU CMS inhaled): 0.3 (0.3–1.6) mg/L | AUC0–24 ([1]; JN, n = 6, 2 mIU CMS inhaled, calculated as AUCinf × 3, median (IQR)): 4.0 (3.8–19.3) mg/L∙h | Cmin ([1]; JN, n = 6, 2 mIU CMS inhaled): 0.1 (0.1–0.2) mg/L | AUC0–8 h ([1]; JN, n = 6, 2 mIU CMS inhaled): 1.3 (1.3–6.4) mg/L∙h | Mean T1/2 (SD) ([1]; JN, n = 6, 2 mIU CMS inhaled, t1/2 = 0.693/λ, mean (SD), SD): 2.4 (0.5) h | Volume of distribution/ fraction of dose absorbed ([1]; VMN, n = 18, 2 mIU CMS inhaled): 22.8 (16.8–33.0) L | Clearance/fraction of dose absorbed ([1]; VMN, n = 18, 2 mIU CMS inhaled): 7.3 (6.0–9.1) L/h | Cmax ([1]; VMN, n = 18, 2 mIU CMS inhaled): 2.6 (2.0–3.5) mg/L | Cmin ([1]; VMN, n = 18, 2 mIU CMS inhaled): 0.2 (0.1–0.3) mg/L | AUC0–8 h ([1]; VMN, n = 18, 2 mIU CMS inhaled): 7.5 (5.5–8.8) mg/L∙h | level at 0.5 h [1, 6]: 100 ng/mL | level at 0.5 h [1, 7]: 600 ng/mL | level at 1 h [1, 6]: 100 ng/mL | level at 1 h [1, 7]: 2300 ng/mL | level at 2 h [1, 6]: 300 ng/mL | level at 2 h [1, 7]: 1700 ng/mL | level at 4 h [1, 6]: 200 ng/mL | level at 4 h [1, 7]: 800 ng/mL | level at 6 h [1, 6]: 100 ng/mL | level at 6 h [1, 7]: 400 ng/mL | level at 8 h [1, 6]: 100 ng/mL | level at 8 h [1, 7]: 200 ng/mL | Tmax [1, 6]: 2.2 h | Tmax [1, 7]: 1.5 h | half-life ([1]; human, inhaled or intranasal, VMN, n = 18, 2 mIU CMS inhaled, t1/2 = 0.693/λ, mean (SD), SD): 2.4 h | fAUC/MIC linked to 2-log killing [2]: 25 | fAUC/MIC predicting 1-log killing [3]: 12.2–22.8 | fAUC/MIC predicting 1-log killing [4]: 7–42 | average plasma concentration, in steady-state conditions, that predicts acute renal failure [5]: 2 mg/L | formed colistin plasma values linked to the occurrence of nephrotoxicity [5]: 2 to 2.5 mg/L
